Test results published in ChEMBL document CHEMBL1153101, “Hit to lead studies on (hetero)arylpyrimidines--agonists of the canonical Wnt-beta-catenin cellular messaging system” (Bioorg Med Chem Lett, 2010).
Values after ≈ are worked out from the molar mass of the structure shown. Active and inactive are the calls of the source. The rule behind the calls is not given here.

Assays:
U2OS = assay: Activation of Wnt-3a/Dkk-1 expressed in human U2OS cells at 20 uM by TCF-luciferase assay relative to control; type: cell-based
[1] = Activation of Wnt-3a/Dkk-1 expressed in human U2OS cells by TCF-luciferase assay; type: cell-based
Mus musculus [2] = assay: Osteogenic activity in wild type C57BL/6 mouse calvaria in vivo assessed as increase in mineral apposition rate at 0.1 mg/kg/day by histomorphometry measurement
[3] = Inhibition of Wnt-3a/Dkk-1-mediated [32P]GSk3beta phosphorylation in human U2OS cells at 20 uM by TCF-luciferase assay relative to control; type: cell-based
Mus musculus [4] = assay: Osteogenic activity in wild type C57BL/6 mouse calvaria in vivo assessed as non phosphorylated beta-catenin at 0.3 mg/kg/day by immunohistochemistry
Mus musculus [5] = assay: Osteogenic activity in wild type C57BL/6 mouse calvaria in vivo assessed as non phosphorylated beta-catenin at 1 mg/kg/day by immunohistochemistry
Mus musculus [6] = assay: Osteogenic activity in wild type C57BL/6 mouse calvaria in vivo assessed as increase in mineral apposition rate at 0.03 mg/kg/day by histomorphometry measurement
[7] = Aqueous solubility of the compound; type: physicochemical
[8] = Metabolic stability in rat liver microsomes; type: ADME, Microsome
[9] = Permeability by PAMPA; type: ADME; settings: read-out: permeability

Row | EC50 [1] | Compound | fold change (FC) (U2OS) | further results
1 | 16 µM | OC[C@H](Cc1cn(Cc2cc(F)cc(F)c2)cn1)Nc1nccc(-c2cc3ccccc3s2)n1 | 1.7 | 
2 | 4.2 µM | c1cc(-c2ccnc(NCCCn3ccnc3)n2)ccn1 | 2.9 | Activity (Mus musculus [2]): Active; IC50 [3]: 51 µM; Activity (Mus musculus [4]): Active; Activity (Mus musculus [5]): Active; Activity (Mus musculus [6]): Active
3 | 12.2 µM | Cc1[nH]c2ccc(O)cc2c1CCNc1nccc(-c2cccnc2)n1 | 5.1 | 
4 | 8.8 µM | c1cncc(-c2ccnc(NCCCn3ccnc3)n2)c1 | 4.7 | 
5 | 10.9 µM | Fc1c(COC[C@H](Cc2c[nH]cn2)Nc2nccc(-c3ccc4ccccc4c3)n2)cccc1C(F)(F)F | 1.6 | 
6 |  | OC[C@H](Cc1cn(Cc2cc(F)cc(F)c2)cn1)Nc1nccc(-c2ccc3ccccc3c2)n1 | 2 | 
7 |  | NC(=O)Cn1cnc(C[C@@H](CO)Nc2nccc(-c3ccc4ccccc4c3)n2)c1 | 3.9 | 
8 | 12.1 µM | c1ccc2cc(-c3ccnc(NCCc4c[nH]cn4)n3)ccc2c1 | 1.1 | 
9 | 20.2 µM | c1cncc(-c2ccnc(NCCc3ccncc3)n2)c1 | 3.4 | 
10 | 6.8 µM | OC[C@H](Cc1c[nH]cn1)Nc1nccc(-c2ccc3ccccc3c2)n1 | 4.9 | solubility [7]: 65 µg/mL (≈ 188 µM); half-life [8]: ≥ 1.33 h; Activity (Mus musculus [2]): Active; Papp [9]: 0.13 ×10⁻⁶ cm/s; Activity (Mus musculus [6]): Active
11 | 46.3 µM | O=[N+]([O-])c1cccc(-c2ccnc(NCCCn3ccnc3)n2)c1 | 3.6 | 
12 | 4.6 µM | c1cncc(CCNc2nccc(-c3ccncc3)n2)c1 | 2.8 | 
13 | 14.6 µM | C#CCn1cnc(C[C@@H](CO)Nc2nccc(-c3cc4ccccc4s3)n2)c1 | 3 | 
14 | 20.8 µM | C=C1CCCCC1OC[C@H](Cc1c[nH]cn1)Nc1nccc(-c2ccc3ccccc3c2)n1 (stereo partly drawn) | 2.2 | 
15 | 29.6 µM | Cc1cc(C)n(CCCNc2nccc(-c3ccncc3)n2)n1 | 2.1 | 
16 |  | C#CCOC[C@H](Cc1c[nH]cn1)Nc1nccc(-c2cc3ccccc3s2)n1 | 3.5 | 
17 |  | N#CCCn1cnc(C[C@@H](CO)Nc2nccc(-c3cc4ccccc4s3)n2)c1 | 4.1 | 
18 |  | N#CCCn1cnc(C[C@@H](CO)Nc2nccc(-c3ccc4ccccc4c3)n2)c1 | 5.5 | 
19 | 3.3 µM | c1ccc2sc(-c3ccnc(NCCc4c[nH]cn4)n3)cc2c1 | 3.7 | 
20 | 6.8 µM | c1cc(CCNc2nccc(-c3ccncc3)n2)ccn1 | 4.3 | 
21 | 4.1 µM | c1cncc(-c2ccnc(NCCc3c[nH]c4ccccc34)n2)c1 | 10 | 
22 | 14.4 µM | CCOC[C@H](Cc1c[nH]cn1)Nc1nccc(-c2ccc3ccccc3c2)n1 | 1.9 | 
23 | 2.7 µM | c1ccc2c(CCNc3nccc(-c4ccncc4)n3)c[nH]c2c1 | 7.5 | 

Row | Compound | EC50 [1] | fold change (FC) (U2OS) | further results
24 | c1cncc(-c2ccnc(NCCc3c[nH]cn3)n2)c1 | 28.8 µM | 3.1 | 
